From ChEMBL document CHEMBL1156093, “Synthesis and biological activity of dialkylphosphocholines” (Bioorg Med Chem Lett, 2009)
In brackets after ≈: the same amount, converted by molar mass.

Key:
[1] = test system: Candida albicans; test: Antifungal activity against Candida albicans; type: functional
[2] = test system: Acanthamoeba lugdunensis; test: Antiprotozoal activity against Acanthamoeba lugdunensis; type: functional
[3] = test system: HeLa; test: Cytotoxicity against human HeLa cells; type: functional, cell-based
[4] = test system: HFL1; test: Cytotoxicity against human HFL1 cells; type: cell-based

CCCCCCCCCCCCCCCCOP(=O)([O-])OCC[N+](C)(C)CCCCCC
MFC [1]: 77.4 µM (≈ 37 µg/mL)
MTC [2]: >400 µM

CCCCCCCCCCCCCC[N+](C)(C)CCOP(=O)([O-])OCCCCCCCC
MFC [1]: 9.7 µM (≈ 4.63 µg/mL)
MTC [2]: >400 µM

CCCCCCCCCCCCCCCCCC[N+](C)(C)CCOP(=O)([O-])OCCCC
MFC [1]: 9.7 µM (≈ 4.63 µg/mL)
MTC [2]: >400 µM

CCCCCCCCCCCCCCCCCCCCOP(=O)([O-])OCC[N+](C)(C)CC
MFC [1]: 619 µM (≈ 296 µg/mL)
IC50 [3]: 20.3 µM
IC50 [4]: 27.2 µM
MTC [2]: >400 µM

CCCCCCCCCCCC[N+](C)(C)CCOP(=O)([O-])OCCCCCCCCCC
MFC [1]: 19.3 µM (≈ 9.22 µg/mL)
IC50 [3]: 118 µM
IC50 [4]: 43.8 µM
MTC [2]: >400 µM

CCCCCCCCCCCC[N+](C)(C)CCCOP(=O)([O-])OCCCCCCCCCC
MFC [1]: 9.4 µM (≈ 4.62 µg/mL)
IC50 [3]: 112 µM
IC50 [4]: 57.7 µM
MTC [2]: 100 µM

CCCCCCCCCCCC[N+](C)(C)CCCCCCCCCCOP(=O)([O-])OCCCCCCCCCC
MFC [1]: 8100 µM (≈ 4780 µg/mL)
MTC [2]: >400 µM

CCCCCCCCCCCCCCCCCCCC[N+](C)(C)CCOP(=O)([O-])OCC
MFC [1]: 1240 µM (≈ 592 µg/mL)
MTC [2]: >400 µM

CCCCCCCCCCCCCCCCCCOP(=O)([O-])OCC[N+](C)(C)CCCC
MFC [1]: 19.3 µM (≈ 9.22 µg/mL)
IC50 [3]: 161 µM
IC50 [4]: 113 µM
MTC [2]: >400 µM

CCCCCCCCCC[N+](C)(C)CC[N+](C)(C)CCCCCCCCCC.[Br-].[Br-]
MFC [1]: 17.5 µM
MTC [2]: 200 µM

CCCCCCCCCCCCCCCCOP(=O)([O-])OCC[N+](C)(C)C [MILTEFOSINE]
MFC [1]: 4 µM (≈ 1.63 µg/mL)
IC50 [3]: 129 µM
IC50 [4]: 203 µM
MTC [2]: 400 µM

CCCCCCCCCCCCCCCC[N+](C)(C)CCOP(=O)([O-])OCCCCCC
MFC [1]: 19.3 µM (≈ 9.22 µg/mL)
IC50 [3]: 170 µM
IC50 [4]: 110 µM
MTC [2]: >400 µM

CCCCCCCCCCCC[N+](C)(C)CCCCOP(=O)([O-])OCCCCCCCCCC
MFC [1]: 18.6 µM (≈ 9.41 µg/mL)
IC50 [3]: 148 µM
IC50 [4]: 94.6 µM
MTC [2]: 200 µM

CCCCCCCCCCCCOP(=O)([O-])OCC[N+](C)(C)CCCCCCCCCC
MFC [1]: 9.7 µM (≈ 4.63 µg/mL)
IC50 [3]: 131 µM
IC50 [4]: 58.8 µM
MTC [2]: >400 µM

CCCCCCCCCCCC[N+](C)(C)CCCCCCOP(=O)([O-])OCCCCCCCCCC
MFC [1]: 34.8 µM (≈ 18.6 µg/mL)
MTC [2]: >400 µM

CCCCCCCCCCOP(=O)([O-])OCC[N+](C)(C)CCCCCCCCCC
MFC [1]: 20.5 µM (≈ 9.22 µg/mL)
MTC [2]: 25 µM

CCCCCCCCCCCCCCOP(=O)([O-])OCC[N+](C)(C)CCCCCCCC
MFC [1]: 19.3 µM (≈ 9.22 µg/mL)
MTC [2]: >400 µM
